Results as given in patent EP4467137A1, “TREATMENT OF FRONTOTEMPORAL DEMENTIA OR FRONTOTEMPORAL LOBAR DEMENTIA” (Universidad Autónoma de Madrid, priority 2023, dated 2024).

Assays:
[1] = tested on: hyperphosphorylated tau; test: Hyperphosphorylated tau (AT8 immunofluorescence) in primary neurons treated with AAV-hTauP301L; type: cell-based, mouse; settings: treatment every other day for 8 days, compound 1 at 30 µM
[2] = In vivo hTauP301L model: spatial memory tests (T-maze, Object Location test); set-up: species or system mouse; settings: 35 days; for OLT discrimination index / T-maze percentage of success: adult mice
Protocol: (§1) In vivo hTau301L model was induced by stereotaxic injection of AAV-hTauP301L (AAV-hTau) particles as described in [Luengo, Enrique et al. "Implication of type 4 NADPH oxidase (NOX4) in tauopathy." Redox biology vol. 49 (2022): 102210. doi:10.1016/j.redox.2021.102210 ]. Control animals were injected with AAV-GFP. Evaluation of hyperphosphorylated tau in sarkosyl soluble and insoluble fractions; microgliosis; AT8 and AT180 by immunofluorescence; and cognitive test were performed as described previously [Luengo, Enrique et al. "Implication of type 4 NADPH oxidase (NOX4) in tauopathy." Redox biology vol. 49 (2022): 102210. doi:10.1016/j.redox.2021.102210 ].
(§2) Oral administration of Compound 1 at different dosages (20 mg·kg^-1 and 50 mg·kg^-1) was administered embedded in gelatine. The compound was given in a mixture of 10 % gelatine from porcine skin and 10 % sucralose in water, heated in a microwave oven. Before Compound 1 addition, gelatine mixture was left at RT. Afterwards, the compound was added, evenly mixed and plated 1 mL·well^-1 in a P24 plate. Before AAV injection, mice were trained to eat the gelatines by giving them one gelatine (without compound) per day for 4 consecutive days. After AAV injection, mice were treated once a day with control or Compound 1 gelatines for 35 consecutive days. This approach was followed in adult (3-4 months old) and aged (16-18 months old) mice injected with AAV-GFP or AAV-hTauP301L.
(§3) Example 2.5. Compound 1 ameliorates hTauP301L induced FTD and cognitive decline in adult (3-4 months old) mice. FTD was generated in adult male and female C57BL/6J mice (3-4 months old) by bihippocampal injection of AAV-hTau particles containing the P301L mutation. Mice were treated orally once a day with a single dose of 20 or 50 mg/kg of Compound 1 formulated in gelatines the day after stereotaxic delivery of AAVs (GFP or TauP301L, to controls and FTD, respectively). After 35 days treatment, hyperphosphorylated tau levels were evaluated by immunofluorescence and by WB in soluble and insoluble in sarkosyl fractions. Also, behavioural tests were conducted to study the cognition status of the mice.
Spatial memory was measured using the T-maze (Figure 9A) and the Object localization tests (OLT; Figure 9B).
(§4) Example 2.6. Compound 1 ameliorates hTauP301L induced FTD and cognitive decline in aged (16-18 months old) mouse. To include the aging effect in the FTD model, the previous experiments were replicated in male and female 16-18 months old C57/BL6J mice.

[3] = tested on: hyperphosphorylated tau; test: In vivo hTauP301L model: hippocampal hyperphosphorylated tau by AT8 and AT180 immunofluorescence; set-up: species or system mouse; settings: 35 days
Protocol: as §1, §2, §3
Hyperphosphorylated tau levels measured with the antibodies AT8 (p-Ser202/p-Thr205) and AT180 (p-Thr231) were analysed by immunofluorescence in fixed postmortem brain slices of treated mice (Figure 7A).
as §4

[4] = Cell viability/toxicity by the MTT method; type: cell-based; settings: human, effect of the compound per se on AREc332 cells
Description: Based on the results obtained (Table 2), Compound 1 was selected for further in vitro and in vivo studies as it was endowed with the best anti-neuroinflammatory activity. Table 2: Comparative in vitro results. Cell viability/toxicity: effect of the compound per se on cell viability of […] cells measured with the MTT method. Anti-neuroinflammatory effect: % Reduction of nitrites in primary rat glial cultures. PAMPA-BBB: In vitro blood-brain barrier permeation assay, permeation rate Pe (10-6 cm.s-1). NRF2, CD (µM): Concentration of compound that doubles de activation of NRF2. ORAC: Oxygen radical absorbance capacity. LOX-5: lipoxygenase-5.

[5] = In vitro blood-brain barrier permeation assay (PAMPA-BBB); type: in vitro ADME
Description: The in vitro blood-brain barrier permeation assay (PAMPA-BBB) was used for predicting the brain penetration of compounds, following a described method [Herrera-Arozamena, Clara et al. "Resveratrol-Based MTDLs to Stimulate Defensive and Regenerative Pathways and Block Early Events in Neurodegenerative Cascades." Journal of medicinal chemistry vol. 65,6 (2022): 4727-4751. doi:10.1021/acs.jmedchem.1c01883]. The results are given as the mean ± SD. In each experiment, 11 quality control standards of known BBB permeability were included to validate the analysis set.

[6] = aged (16-18 months old) mice, 50 mg/kg oral
[7] = adult (3-4 months old) mice, 50 mg/kg/day oral

SMILES: COc1ccc2c(c1)CC(c1c[nH]c3ccc(OC)cc13)N2 (centres unmarked) [Compound 1, 5-Methoxy-3-(5-methoxyindolin-2-yl)-1H-indole]
- AT8 intensity levels [1]: reduced
- OLT discrimination index ([2]; 20 mg/kg or 50 mg/kg oral): dose-dependent improvement
- T-maze percentage of success ([2]; 20 mg/kg or 50 mg/kg oral): dose-dependent improvement
- OLT discrimination index ([2]; 50 mg/kg oral): total recovery
- T-maze percentage of success ([2]; 50 mg/kg oral): total recovery
- spatial memory loss, OLT [2, 6]: prevented
- spatial memory loss, T-maze [2, 6]: prevented
- AT8 fluorescence in hippocampus (DG, CA1 and CA3) [3, 7]: significantly reduced
- AT180 fluorescence in hippocampus (DG, CA1 and CA3) [3, 7]: significantly reduced
- hyperphosphorylated tau levels by AT8 in DG, CA3 and CA1 [3, 6]: reduced
- hyperphosphorylated tau levels by AT180 in DG, CA3 and CA1 [3, 6]: reduced
- CC50 [4]: > 30 µM
- PAMPA-BBB predicted brain penetration [5]: cns+
- Papp ([5]; PAMPA, permeation rate, mean ± SD, read-out: PAMPA-BBB Pe): 12.9 ± 0.9 ×10⁻⁶ cm/s
